Measured values: patent US20250129104A1, “7H-PYRROLO[2,3-D]PYRIMIDINES AND PREPARATION AND USES THEREOF” (BioSplice Therapeutics, Inc., priority 2021, published 2025)

Molecular target: recombinant DYRK1A kinase (Homo sapiens (Human), UniProt Q13627)
Test: DYRK1A kinase assay (Ser/Thr 18 peptide Z-lyte FRET assay)
Type: biochemical
Conditions: DYRK1A kinase activity; 15 μM ATP, 1 h room temperature; method text calls the value IC50
Summary of the method: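 Recombinant human DYRK1A (0.25 μg/mL) with 15 μM ATP and 4 μM Ser/Thr 18 peptide, 1 h at room temperature with compound (11-point, 1:3, 10 μM top, duplicate). Z-lyte development 1 h, then coumarin/fluorescein FRET emission ratio converted to % phosphorylation; IC50 by non-linear regression.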

Row | SMILES | EC50
1 | COc1nc(N[C@H]2CC[C@@](C)(O)CC2)nc2[nH]cc(-c3ccn4nccc4c3)c12 [Compound 2208, cis-4-((4-Methoxy-5-(pyrazolo[1,5-a]pyridin-5-yl)-7H-pyrrolo[2,3-d]pyrimidin-2-yl)amino)-1-methylcyclohexan-1-ol] | 4.3 nM
2 | COc1nc(N[C@H]2CC[C@](C)(O)CC2)nc2[nH]cc(-c3ccn4nccc4c3)c12 [Compound 2209, trans-4-((4-Methoxy-5-(pyrazolo[1,5-a]pyridin-5-yl)-7H-pyrrolo[2,3-d]pyrimidin-2-yl)amino)-1-methylcyclohexan-1-ol] | 1.6 nM
3 | [2H]C([2H])([2H])O[C@H]1CC[C@@H](Nc2nc(OC)c3c(-c4ccn5nccc5c4)c[nH]c3n2)CC1 [Compound 2210, 4-Methoxy-N-(cis-4-(methoxy-d3)cyclohexyl)-5-(pyrazolo[1,5-a]pyridin-5-yl)-7H-pyrrolo[2,3-d]pyrimidin-2-amine] | 3.4 nM
4 | COc1nc(N[C@H]2CC[C@@H](OC(F)F)CC2)nc2[nH]cc(-c3ccn4nccc4c3)c12 [Compound 2211, N-(cis-4-(Difluoromethoxy)cyclohexyl)-4-methoxy-5-(pyrazolo[1,5-a]pyridin-5-yl)-7H-pyrrolo[2,3-d]pyrimidin-2-amine] | 126 nM
5 | COc1nc(N[C@H]2CC[C@@H](OCC(F)F)CC2)nc2[nH]cc(-c3ccn4nccc4c3)c12 [Compound 2212, N-(cis-4-(2,2-Difluoroethoxy)cyclohexyl)-4-methoxy-5-(pyrazolo[1,5-a]pyridin-5-yl)-7H-pyrrolo[2,3-d]pyrimidin-2-amine] | 6.6 nM
6 | COc1nc(N[C@H]2CC[C@@H](OCCO)CC2)nc2[nH]cc(-c3ccn4nccc4c3)c12 [Compound 2213, 2-((cis-4-((4-Methoxy-5-(pyrazolo[1,5-a]pyridin-5-yl)-7H-pyrrolo[2,3-d]pyrimidin-2-yl)amino)cyclohexyl)oxy)ethan-1-ol] | 71.9 nM
7 | COCCO[C@H]1CC[C@@H](Nc2nc(OC)c3c(-c4ccn5nccc5c4)c[nH]c3n2)CC1 [Compound 2214, 4-Methoxy-N-(cis-4-(2-methoxyethoxy)cyclohexyl)-5-(pyrazolo[1,5-a]pyridin-5-yl)-7H-pyrrolo[2,3-d]pyrimidin-2-amine] | 1.7 nM
8 | COc1nc(NC2CCC3(CC2)OCCO3)nc2[nH]cc(-c3ccn4nccc4c3)c12 [Compound 2215, 4-Methoxy-5-(pyrazolo[1,5-a]pyridin-5-yl)-N-(1,4-dioxaspiro[4.5]decan-8-yl)-7H-pyrrolo[2,3-d]pyrimidin-2-amine] | 1.6 nM
9 | COc1nc(NC2CCN(C)CC2)nc2[nH]cc(-c3ccn4nccc4c3)c12 [Compound 2216, 4-Methoxy-N-(1-methylpiperidin-4-yl)-5-(pyrazolo[1,5-a]pyridin-5-yl)-7H-pyrrolo[2,3-d]pyrimidin-2-amine] | 7.4 nM
10 | COc1nc(NC2CCOCC2)nc2[nH]cc(-c3ccn4nccc4c3)c12 [Compound 2217, 4-Methoxy-5-(pyrazolo[1,5-a]pyridin-5-yl)-N-(tetrahydro-2H-pyran-4-yl)-7H-pyrrolo[2,3-d]pyrimidin-2-amine] | 2.2 nM
11 | CCOc1nc(N[C@H](C)C(F)(F)F)nc2[nH]cc(-c3ccn4nccc4c3)c12 [Compound 2218, (R)-4-Ethoxy-5-(pyrazolo[1,5-a]pyridin-5-yl)-N-(1,1,1-trifluoropropan-2-yl)-7H-pyrrolo[2,3-d]pyrimidin-2-amine] | 12.9 nM
12 | CCOc1nc(N[C@H]2CC[C@@H](O)CC2)nc2[nH]cc(-c3ccn4nccc4c3)c12 [Compound 2219, cis-4-((4-Ethoxy-5-(pyrazolo[1,5-a]pyridin-5-yl)-7H-pyrrolo[2,3-d]pyrimidin-2-yl)amino)cyclohexan-1-ol] | 3.5 nM
13 | CC(C)Oc1nc(N[C@H]2CC[C@@](C)(O)CC2)nc2[nH]cc(-c3ccn4nccc4c3)c12 [Compound 2220, cis-4-((4-Isopropoxy-5-(pyrazolo[1,5-a]pyridin-5-yl)-7H-pyrrolo[2,3-d]pyrimidin-2-yl)amino)-1-methylcyclohexan-1-ol] | 66.1 nM
14 | FC(F)CO[C@H]1CC[C@@H](Nc2ncc3c(-c4ccn5nccc5n4)c[nH]c3n2)CC1 [Compound 2222, N-(cis-4-(2,2-Difluoroethoxy)cyclohexyl)-5-(pyrazolo[1,5-a]pyrimidin-5-yl)-7H-pyrrolo[2,3-d]pyrimidin-2-amine] | 5.8 nM
15 | COc1nc(NC2CCOCC2)nc2[nH]cc(-c3ccn4nccc4n3)c12 [Compound 2224, 4-Methoxy-5-(pyrazolo[1,5-a]pyrimidin-5-yl)-N-(tetrahydro-2H-pyran-4-yl)-7H-pyrrolo[2,3-d]pyrimidin-2-amine] | 10.7 nM
16 | COCCO[C@H]1CC[C@@H](Nc2ncc3c(-c4ccc5ncccc5c4)c[nH]c3n2)CC1 [Compound 2226, N-(cis-4-(2-Methoxyethoxy)cyclohexyl)-5-(quinolin-6-yl)-7H-pyrrolo[2,3-d]pyrimidin-2-amine] | 6.2 nM
17 | COc1nc(NC2CCC(F)(F)CC2)nc2[nH]cc(-c3ccc4ncccc4c3)c12 [Compound 2227, N-(4,4-Difluorocyclohexyl)-4-methoxy-5-(quinolin-6-yl)-7H-pyrrolo[2,3-d]pyrimidin-2-amine] | 175 nM

Row | SMILES | EC50
18 | C[C@]1(O)CC[C@@H](Nc2ncc3c(-c4ccc5nccnc5c4)c[nH]c3n2)CC1 [Compound 2228, cis-1-Methyl-4-((5-(quinoxalin-6-yl)-7H-pyrrolo[2,3-d]pyrimidin-2-yl)amino)cyclohexan-1-ol] | 2.6 nM
19 | OCCO[C@H]1CC[C@@H](Nc2ncc3c(-c4ccc5nccnc5c4)c[nH]c3n2)CC1 [Compound 2229, 2-((cis-4-((5-(Quinoxalin-6-yl)-7H-pyrrolo[2,3-d]pyrimidin-2-yl)amino)cyclohexyl)oxy)ethan-1-ol] | 2.6 nM
20 | COc1nc(NC2CCC(F)(F)CC2)nc2[nH]cc(-c3ccc4nccnc4c3)c12 [Compound 2230, N-(4,4-Difluorocyclohexyl)-4-methoxy-5-(quinoxalin-6-yl)-7H-pyrrolo[2,3-d]pyrimidin-2-amine] | 4.5 nM
21 | COc1nc(N[C@H]2CC[C@@](C)(O)CC2)nc2[nH]cc(-c3ccc4nccnc4c3)c12 [Compound 2231, cis-4-((4-Methoxy-5-(quinoxalin-6-yl)-7H-pyrrolo[2,3-d]pyrimidin-2-yl)amino)-1-methylcyclohexan-1-ol] | 2.2 nM
22 | CCOc1nc(N[C@H]2CC[C@@H](O)CC2)nc2[nH]cc(-c3ccc4nccnc4c3)c12 [Compound 2232, cis-4-((4-Ethoxy-5-(quinoxalin-6-yl)-7H-pyrrolo[2,3-d]pyrimidin-2-yl)amino)cyclohexan-1-ol] | 1.3 nM
23 | COc1nc(N[C@H]2CC[C@@](C)(O)CC2)nc2[nH]cc(-c3ccc4nccn4c3)c12 [Compound 2233, cis-4-((5-(Imidazo[1,2-a]pyridin-6-yl)-4-methoxy-7H-pyrrolo[2,3-d]pyrimidin-2-yl)amino)-1-methylcyclohexan-1-ol] | 1.6 nM
24 | C[C@]1(O)CC[C@@H](Nc2ncc3c(-c4ccn5nccc5c4)c[nH]c3n2)CC1 [Compound 2234, cis-1-Methyl-4-((5-(pyrazolo[1,5-a]pyridin-5-yl)-7H-pyrrolo[2,3-d]pyrimidin-2-yl)amino)cyclohexan-1-ol] | 5.9 nM
25 | C[C@]1(O)CC[C@@H](Nc2ncc3c(-c4ccc5nccn5c4)c[nH]c3n2)CC1 [Compound 2235, cis-4-((5-(Imidazo[1,2-a]pyridin-6-yl)-7H-pyrrolo[2,3-d]pyrimidin-2-yl)amino)-1-methylcyclohexan-1-ol] | 7.4 nM
26 | C[C@]1(O)CC[C@H](Nc2ncc3c(-c4ccc5nccn5c4)c[nH]c3n2)CC1 [Compound 2236, trans-4-((5-(Imidazo[1,2-a]pyridin-6-yl)-7H-pyrrolo[2,3-d]pyrimidin-2-yl)amino)-1-methylcyclohexan-1-ol] | 15 nM
27 | C[C@]1(O)CC[C@H](Nc2ncc3c(-c4cc(F)c5nccn5c4)c[nH]c3n2)CC1 [Compound 2237, trans-4-((5-(8-Fluoroimidazo[1,2-a]pyridin-6-yl)-7H-pyrrolo[2,3-d]pyrimidin-2-yl)amino)-1-methylcyclohexan-1-ol] | 7.9 nM
28 | Cc1nc2ccc(-c3c[nH]c4nc(N[C@H]5CC[C@@](C)(O)CC5)ncc34)nc2n1CC(F)F [Compound 2239, cis-4-((5-(3-(2,2-Difluoroethyl)-2-methyl-3H-imidazo[4,5-b]pyridin-5-yl)-7H-pyrrolo[2,3-d]pyrimidin-2-yl)amino)-1-methylcyclohexan-1-ol] | 6.9 nM
29 | COc1nc(NCC(C)(C)F)nc2[nH]cc(-c3ccc4nccn4c3)c12 [Compound 2240, N-(2-Fluoro-2-methylpropyl)-5-(imidazo[1,2-a]pyridin-6-yl)-4-methoxy-7H-pyrrolo[2,3-d]pyrimidin-2-amine] | 7.9 nM
30 | COc1nc(NC2CCC(F)(F)CC2)nc2[nH]cc(-c3ccc4nccn4c3)c12 [Compound 2241, N-(4,4-Difluorocyclohexyl)-5-(imidazo[1,2-a]pyridin-6-yl)-4-methoxy-7H-pyrrolo[2,3-d]pyrimidin-2-amine] | 26.9 nM
31 | [2H]C([2H])([2H])O[C@H]1CC[C@@H](Nc2nc(OC)c3c(-c4ccc5nccn5c4)c[nH]c3n2)CC1 [Compound 2242, 5-(Imidazo[1,2-a]pyridin-6-yl)-4-methoxy-N-(cis-4-(methoxy-d3)cyclohexyl)-7H-pyrrolo[2,3-d]pyrimidin-2-amine] | 28.4 nM
32 | COc1nc(N[C@H]2CC[C@H](OC(F)F)CC2)nc2[nH]cc(-c3ccc4nccn4c3)c12 [Compound 2245, N-(trans-4-(Difluoromethoxy)cyclohexyl)-5-(imidazo[1,2-a]pyridin-6-yl)-4-methoxy-7H-pyrrolo[2,3-d]pyrimidin-2-amine] | 29.6 nM
33 | COc1nc(N[C@H]2CC[C@@H](OC(F)(F)F)CC2)nc2[nH]cc(-c3ccc4nccn4c3)c12 [Compound 2246, 5-(Imidazo[1,2-a]pyridin-6-yl)-4-methoxy-N-(cis-4-(trifluoromethoxy)cyclohexyl)-7H-pyrrolo[2,3-d]pyrimidin-2-amine] | 132 nM
